ChEMBL document CHEMBL2401673, “Design, synthesis, functional and structural characterization of an inhibitor of N-acetylneuraminate-9-phosphate phosphatase: observation of extensive dynamics in an enzyme/inhibitor complex” (Bioorg Med Chem Lett, 2013)

Experiments:
[1] = Dissociation constant, pKa of the compound by potentiometric titration method; type: physicochemical
[2] = target: T1, N-acylneuraminate-9-phosphatase (Homo sapiens, UniProt Q8TBE9); test: Reversible inhibition of recombinant HDHD4 (unknown origin) using Neu5Ac-9-P as substrate assessed as release of phosphate after 30 mins by maiachite green assay
T1 sequence (Q8TBE9 whole entry): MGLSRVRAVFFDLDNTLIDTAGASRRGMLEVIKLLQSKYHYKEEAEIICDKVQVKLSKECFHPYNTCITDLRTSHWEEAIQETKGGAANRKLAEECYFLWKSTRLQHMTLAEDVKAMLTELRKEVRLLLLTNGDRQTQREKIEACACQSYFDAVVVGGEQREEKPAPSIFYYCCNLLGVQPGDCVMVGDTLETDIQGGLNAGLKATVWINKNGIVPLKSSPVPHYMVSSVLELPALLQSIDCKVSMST

[3] = target: T1, N-acylneuraminate-9-phosphatase; test: Inhibition of recombinant HDHD4 (unknown origin) using Neu5Ac-9-P as substrate assessed as release of phosphate after 30 mins by maiachite green assay

Structure (SMILES) | pKa [1] | IC50 [2] [µM] | IC50 [3] [µM]
CC(=O)N[C@H]1[C@H]([C@H](O)[C@H](O)CO)O[C@](O)(C(=O)O)C[C@@H]1O | 3.2 |  | 
CC(=O)N[C@H]1[C@H]([C@H](O)[C@H](O)CCP(=O)(O)O)O[C@](O)(C(=O)O)C[C@@H]1O | 3.5 | 11 | 
CC(=O)N[C@H]1[C@H]([C@H](O)[C@H](O)CCC(=O)O)O[C@](O)(C(=O)O)C[C@@H]1O |  |  | > 100
COC(=O)[C@]1(OC)C[C@H](O)[C@@H](NC(C)=O)[C@H]([C@H](O)[C@H](O)CCP(=O)(O)O)O1 |  |  | 93.7

Further lines, results first:

pKa [1] | IC50 [2] [µM] | IC50 [3] [µM] | Structure (SMILES)
 |  | 49.8 | CO[C@@]1(C(=O)O)C[C@H](O)[C@@H](NC(C)=O)[C@H]([C@H](O)[C@H](O)CCP(=O)(O)O)O1
3.6 |  |  | CC(=O)N[C@H]1[C@H]([C@H](O)[C@H](O)COP(=O)(O)O)O[C@](O)(C(=O)O)C[C@@H]1O
